Measurements reported in ChEMBL document CHEMBL2021774, “Rapid development of piperidine carboxamides as potent and selective anaplastic lymphoma kinase inhibitors” (J Med Chem, 2012).

Tests used:
[1] = target: Insulin-like growth factor 1 receptor (Homo sapiens, UniProt P08069)
[2] = target: T1, ALK tyrosine kinase receptor (Homo sapiens, UniProt Q9UM73)
[3] = target: T1, ALK tyrosine kinase receptor; remark: listed apart in the source
Description: Inhibition of ALK phosphorylation in human Karpas-299 cells after 1 hr

Insulin-like growth factor 1 receptor, sequence (P08069 31-736 limits assumed): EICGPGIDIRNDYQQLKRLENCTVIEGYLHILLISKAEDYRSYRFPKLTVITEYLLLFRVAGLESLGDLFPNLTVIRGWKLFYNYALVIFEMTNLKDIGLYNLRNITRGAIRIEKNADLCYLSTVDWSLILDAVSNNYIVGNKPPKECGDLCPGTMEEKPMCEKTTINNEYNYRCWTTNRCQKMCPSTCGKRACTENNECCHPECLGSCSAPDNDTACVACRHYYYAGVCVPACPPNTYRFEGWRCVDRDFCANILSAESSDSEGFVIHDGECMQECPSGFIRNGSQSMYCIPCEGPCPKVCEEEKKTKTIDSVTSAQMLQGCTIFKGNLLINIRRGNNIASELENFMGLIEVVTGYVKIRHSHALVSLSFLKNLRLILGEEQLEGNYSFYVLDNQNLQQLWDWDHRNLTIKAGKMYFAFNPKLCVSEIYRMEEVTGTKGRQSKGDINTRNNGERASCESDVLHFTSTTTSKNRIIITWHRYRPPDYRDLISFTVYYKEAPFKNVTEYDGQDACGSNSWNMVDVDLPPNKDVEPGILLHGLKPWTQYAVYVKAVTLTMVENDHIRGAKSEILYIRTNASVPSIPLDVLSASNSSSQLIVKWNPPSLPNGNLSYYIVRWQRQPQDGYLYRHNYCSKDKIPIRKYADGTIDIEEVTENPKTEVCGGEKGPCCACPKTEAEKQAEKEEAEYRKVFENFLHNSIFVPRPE
Insulin-like growth factor 1 receptor, sequence (P08069 741-1367 limits assumed): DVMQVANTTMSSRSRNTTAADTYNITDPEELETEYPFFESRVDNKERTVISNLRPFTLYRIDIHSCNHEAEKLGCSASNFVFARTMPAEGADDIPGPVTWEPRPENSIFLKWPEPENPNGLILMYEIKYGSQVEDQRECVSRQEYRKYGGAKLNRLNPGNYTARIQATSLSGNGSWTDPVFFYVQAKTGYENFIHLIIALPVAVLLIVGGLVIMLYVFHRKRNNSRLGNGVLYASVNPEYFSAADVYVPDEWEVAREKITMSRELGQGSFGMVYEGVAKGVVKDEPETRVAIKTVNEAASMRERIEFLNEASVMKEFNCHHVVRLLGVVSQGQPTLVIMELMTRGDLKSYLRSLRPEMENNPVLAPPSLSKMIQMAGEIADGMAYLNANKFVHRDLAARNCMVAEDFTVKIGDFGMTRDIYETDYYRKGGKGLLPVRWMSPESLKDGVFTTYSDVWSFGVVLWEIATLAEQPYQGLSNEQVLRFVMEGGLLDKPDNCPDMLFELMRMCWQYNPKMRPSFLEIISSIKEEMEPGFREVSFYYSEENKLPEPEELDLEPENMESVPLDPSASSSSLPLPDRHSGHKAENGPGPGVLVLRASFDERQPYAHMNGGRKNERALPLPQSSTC
T1 sequence (Q9UM73 whole entry): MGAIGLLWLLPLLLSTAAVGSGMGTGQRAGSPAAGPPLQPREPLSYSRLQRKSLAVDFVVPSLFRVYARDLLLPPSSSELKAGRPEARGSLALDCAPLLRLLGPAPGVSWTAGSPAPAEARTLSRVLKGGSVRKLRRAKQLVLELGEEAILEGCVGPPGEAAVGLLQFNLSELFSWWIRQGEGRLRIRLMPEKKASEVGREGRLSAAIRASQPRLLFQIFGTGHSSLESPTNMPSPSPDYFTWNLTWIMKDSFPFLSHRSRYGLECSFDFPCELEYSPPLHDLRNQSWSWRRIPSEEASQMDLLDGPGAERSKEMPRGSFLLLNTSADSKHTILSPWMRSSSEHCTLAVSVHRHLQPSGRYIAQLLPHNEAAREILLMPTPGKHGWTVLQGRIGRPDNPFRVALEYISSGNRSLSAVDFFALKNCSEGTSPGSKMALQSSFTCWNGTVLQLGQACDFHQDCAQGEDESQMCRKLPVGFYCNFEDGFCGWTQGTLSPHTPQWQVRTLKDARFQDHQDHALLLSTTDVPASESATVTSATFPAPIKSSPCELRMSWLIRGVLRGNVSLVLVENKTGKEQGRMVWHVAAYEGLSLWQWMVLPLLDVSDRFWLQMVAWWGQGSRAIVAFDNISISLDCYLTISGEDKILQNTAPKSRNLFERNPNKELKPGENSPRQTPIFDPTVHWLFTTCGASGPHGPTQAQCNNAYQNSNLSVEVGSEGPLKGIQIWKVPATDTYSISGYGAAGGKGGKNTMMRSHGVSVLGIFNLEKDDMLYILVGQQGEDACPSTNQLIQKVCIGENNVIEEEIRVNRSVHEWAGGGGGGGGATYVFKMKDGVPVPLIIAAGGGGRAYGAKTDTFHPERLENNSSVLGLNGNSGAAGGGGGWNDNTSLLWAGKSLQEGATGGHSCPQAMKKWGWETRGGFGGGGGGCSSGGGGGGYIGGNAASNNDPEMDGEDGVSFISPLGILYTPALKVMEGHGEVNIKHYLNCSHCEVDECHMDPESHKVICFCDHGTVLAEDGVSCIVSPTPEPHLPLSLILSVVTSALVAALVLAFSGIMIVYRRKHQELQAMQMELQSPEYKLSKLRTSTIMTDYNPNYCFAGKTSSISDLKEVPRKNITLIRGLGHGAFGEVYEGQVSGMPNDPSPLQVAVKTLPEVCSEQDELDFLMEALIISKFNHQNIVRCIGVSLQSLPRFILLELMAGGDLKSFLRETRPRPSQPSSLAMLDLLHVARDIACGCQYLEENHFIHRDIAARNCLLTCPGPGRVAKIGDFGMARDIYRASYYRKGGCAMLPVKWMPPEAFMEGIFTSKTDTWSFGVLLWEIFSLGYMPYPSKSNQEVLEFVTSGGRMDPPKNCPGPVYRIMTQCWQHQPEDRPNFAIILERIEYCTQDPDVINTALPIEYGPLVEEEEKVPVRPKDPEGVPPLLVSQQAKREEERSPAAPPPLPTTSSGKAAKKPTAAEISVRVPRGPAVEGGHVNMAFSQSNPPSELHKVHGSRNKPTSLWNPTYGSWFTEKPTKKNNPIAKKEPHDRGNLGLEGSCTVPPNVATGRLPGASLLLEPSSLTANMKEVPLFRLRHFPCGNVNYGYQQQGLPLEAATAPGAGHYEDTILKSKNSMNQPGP

| IC50 [1] [µM] | IC50 [2] [µM] | IC50 [3] [µM] | Structure (SMILES) |
| --- | --- | --- | --- |
| 4.61 | – | – | COc1cc(Nc2nccc(N3CCC[C@H](C(=O)NCc4ccc(C)cc4)C3)n2)cc(OC)c1OC |
| > 25 | > 25 | – | CNc1nccc(N2CCC[C@H](C(=O)NCc3ccc(C)cc3)C2)n1 |
| > 25 | – | – | Cc1ccc(CNC(=O)[C@H]2CCCN(c3ccnc(Nc4ccccc4)n3)C2)cc1 |
| > 25 | > 25 | – | Cc1ccc(CNC(=O)[C@H]2CCCN(c3ccnc(NCc4ccccc4)n3)C2)cc1 |
| > 25 | – | – | Cc1ccc(CNC(=O)[C@H]2CCCN(c3ccnc(Nc4cccc(Cl)c4)n3)C2)cc1 |
| > 25 | 6.3 | – | Cc1ccc(CNC(=O)[C@H]2CCCN(c3ccnc(Nc4ccc(Cl)cc4)n3)C2)cc1 |
| > 25 | – | – | COc1ccc(Nc2nccc(N3CCC[C@H](C(=O)NCc4ccc(C)cc4)C3)n2)cc1 |
| > 25 | – | – | CCc1cccc(Nc2nccc(N3CCC[C@H](C(=O)NCc4ccc(C)cc4)C3)n2)c1 |
| > 25 | – | – | CCc1ccc(Nc2nccc(N3CCC[C@H](C(=O)NCc4ccc(C)cc4)C3)n2)cc1 |
| > 25 | – | – | COc1ccc(Nc2nccc(N3CCC[C@H](C(=O)NCc4ccc(C)cc4)C3)n2)cc1OC |
| > 25 | – | – | Cc1ccc(CNC(=O)[C@H]2CCCN(c3ccnc(Nc4ccc5c(c4)OCCO5)n3)C2)cc1 |
| > 25 | – | – | COc1cc(Nc2nccc(N3CCC[C@H](C(=O)NCCc4ccccc4)C3)n2)cc(OC)c1OC |
| – | 6.71 | – | COc1cc(Nc2nccc(N3CCC[C@H](C(=O)NCCCc4ccccc4)C3)n2)cc(OC)c1OC |
| > 25 | 2.93 | – | COc1cc(Nc2nccc(N3CCC[C@H](C(=O)NCc4ccc([N+](=O)[O-])cc4)C3)n2)cc(OC)c1OC |
| > 25 | – | – | COC(=O)c1ccc(CNC(=O)[C@H]2CCCN(c3ccnc(Nc4cc(OC)c(OC)c(OC)c4)n3)C2)cc1 |
| > 25 | – | – | COc1cc(Nc2nccc(N3CCC[C@H](C(=O)NCc4ccc(-c5ccccc5)cc4)C3)n2)cc(OC)c1OC |
| – | 0.031 | 0.028 | COc1cc(Nc2nccc(N3CCC[C@H](C(=O)NCc4cccc(N5CCOCC5)c4)C3)n2)cc(OC)c1OC |
| > 25 | – | – | COc1cc(Nc2nccc(N3CCC[C@@H](C(=O)NCc4ccc(C)cc4)C3)n2)cc(OC)c1OC |
